Measurements taken from patent US11065257B2, “Substituted pyrazoloazepin-4-ones and their use as phosphodiesterase inhibitors” (LEO Pharma A/S, priority 2016, dated 2021).

These molecules were tested against T1, human PDE4D catalytic domain (Homo sapiens, UniProt Q08499) (assay: PDE4 Assay). Settings: human PDE4D catalytic domain (S380-L740), TR-FRET with FAM-cAMP; expressed as a range of IC50; read-out: PDE4 Potency Range.
T1 construct: UniProt no; Q08499 [S380-L740]
Type: biochemical
Description: The human PDE4D catalytic domain (UniProt no. Q08499 [S380-L740]) was incubated with a mixture of non-labelled cAMP (cyclic adenosine monophosphate) and fluorescein amidite (FAM) conjugated cAMP and titrated test or reference compound. Following brief incubation the enzymatic reaction was stopped by addition of binding buffer containing nanoparticles with immobilized trivalent metal ions capable of binding 1) AMP phospho groups and 2) terbium (Tb) donor fluorophores. Subsequent excitation of the Tb donor triggers time-resolved FRET to adjacent FAM acceptor molecules resulting in light emission. In the presence of a PDE4 inhibitor, AMP generation was reduced resulting in a lower fluorescence signal. The cAMP phosphodiester is not bound by the detection system.
The results were calculated as the molar concentrations resulting in 50% inhibition of the substrate cleavage compared to controls samples, and are expressed as a range of IC50 (nM).

T1 sequence (Q08499 380-740): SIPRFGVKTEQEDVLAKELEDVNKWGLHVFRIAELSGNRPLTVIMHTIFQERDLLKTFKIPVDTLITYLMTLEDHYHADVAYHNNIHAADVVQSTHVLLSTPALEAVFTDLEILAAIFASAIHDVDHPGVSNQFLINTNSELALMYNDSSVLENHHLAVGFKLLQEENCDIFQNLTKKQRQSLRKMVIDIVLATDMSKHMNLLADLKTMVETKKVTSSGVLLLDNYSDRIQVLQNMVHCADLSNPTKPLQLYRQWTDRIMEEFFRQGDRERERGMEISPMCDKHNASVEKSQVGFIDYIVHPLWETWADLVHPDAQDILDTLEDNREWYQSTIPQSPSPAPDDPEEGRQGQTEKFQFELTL

Compound | IC50 [µM]
CCc1nn(CCCOC(=O)c2oncc2C)c2c1C(=O)NCC1(CCOCC1)C2 [Example 42, 3-(3-ethyl-4-oxo-spiro[6,8-dihydro-5H-pyrazolo[4,3-c]azepine-7,4′-tetrahydropyran]-1-yl)propyl 4-methylisoxazole-5-carboxylate] | 0.1 to 0.5
CCc1nn(CCCOC(=O)C2CCN(C(C)=O)C2)c2c1C(=O)NCC1(CCOCC1)C2 (stereo not shown) [Example 93, 3-(3-ethyl-4-oxo-spiro[6,8-dihydro-5H-pyrazolo[4,3-c]azepine-7,4′-tetrahydropyran]-1-yl)propyl 1-acetylpyrrolidine-3-carboxylate] | > 0.5
CCc1nn(C[C@@H](C)COC(=O)C2CCOC2)c2c1C(=O)NCC1(CCOCC1)C2 (stereo partly drawn) [Example 108, [(2R)-3-(3-ethyl-4-oxo-spiro[6,8-dihydro-5H-pyrazolo[4,3-c]azepine-7,4′-tetrahydropyran]-1-yl)-2-methyl-propyl] tetrahydrofuran-3-carboxylate] | < 0.1
CCc1nn(CCCOC(=O)c2cn[nH]c2)c2c1C(=O)NCC1(CCOCC1)C2 [Example 20, 3-(3-ethyl-4-oxo-spiro[6,8-dihydro-5H-pyrazolo[4,3-c]azepine-7,4′-tetrahydropyran]-1-yl)propyl 1H-pyrazole-4-carboxylate] | 0.1 to 0.5
CCc1nn(CCCOC(=O)c2ccno2)c2c1C(=O)NCC1(CCOCC1)C2 [Example 22, 3-(3-ethyl-4-oxo-spiro[6,8-dihydro-5H-pyrazolo[4,3-c]azepine-7,4′-tetrahydropyran]-1-yl)propyl isoxazole-5-carboxylate] | 0.1 to 0.5
CCc1nn(CCCOC(=O)c2ncsc2C)c2c1C(=O)NCC1(CCOCC1)C2 [Example 80, 3-(3-ethyl-4-oxo-spiro[6,8-dihydro-5H-pyrazolo[4,3-c]azepine-7,4′-tetrahydropyran]-1-yl)propyl 5-methylthiazole-4-carboxylate] | 0.1 to 0.5
CCc1nn(CCOC(=O)c2ccno2)c2c1C(=O)NCC1(CCOCC1)C2 [Example 1, 2-(3-ethyl-4-oxo-spiro[6,8-dihydro-5H-pyrazolo[4,3-c]azepine-7,4′-tetrahydropyran]-1-yl)ethyl isoxazole-5-carboxylate] | 0.1 to 0.5
CCc1nn(CCOC(=O)c2cc(C)n(C)n2)c2c1C(=O)NCC1(CCOCC1)C2 [Example 10, 2-(3-ethyl-4-oxo-spiro[6,8-dihydro-5H-pyrazolo[4,3-c]azepine-7,4′-tetrahydropyran]-1-yl)ethyl 1,5-dimethylpyrazole-3-carboxylate] | > 0.5
CCc1nn(CCCOC(=O)c2nccc(C)n2)c2c1C(=O)NCC1(CCOCC1)C2 [Example 69, 3-(3-ethyl-4-oxo-spiro[6,8-dihydro-5H-pyrazolo[4,3-c]azepine-7,4′-tetrahydropyran]-1-yl)propyl 4-methylpyrimidine-2-carboxylate] | > 0.5
CCc1nn(CCCOC(=O)c2conc2C)c2c1C(=O)NCC1(CCOCC1)C2 [Example 45, 3-(3-ethyl-4-oxo-spiro[6,8-dihydro-5H-pyrazolo[4,3-c]azepine-7,4′-tetrahydropyran]-1-yl)propyl 3-methylisoxazole-4-carboxylate] | 0.1 to 0.5
CCc1nn(CCOC(=O)c2coc(C)n2)c2c1C(=O)NCC1(CCOCC1)C2 [Example 5, 2-(3-ethyl-4-oxo-spiro[6,8-dihydro-5H-pyrazolo[4,3-c]azepine-7,4′-tetrahydropyran]-1-yl)ethyl 2-methyloxazole-4-carboxylate] | > 0.5
CCc1nn(CCCOC(=O)c2cncs2)c2c1C(=O)NCC1(CCOCC1)C2 [Example 56, 3-(3-ethyl-4-oxo-spiro[6,8-dihydro-5H-pyrazolo[4,3-c]azepine-7,4′-tetrahydropyran]-1-yl)propyl thiazole-5-carboxylate] | 0.1 to 0.5
CCc1nn(CCCOC(=O)c2cc(C)nn2CC)c2c1C(=O)NCC1(CCOCC1)C2 [Example 90, 3-(3-ethyl-4-oxo-spiro[6,8-dihydro-5H-pyrazolo[4,3-c]azepine-7,4′-tetrahydropyran]-1-yl)propyl 2-ethyl-5-methyl-pyrazole-3-carboxylate] | 0.1 to 0.5
CCc1nn(CCCOC(=O)c2cc(O)no2)c2c1C(=O)NCC1(CCOCC1)C2 [Example 52, 3-(3-ethyl-4-oxo-spiro[6,8-dihydro-5H-pyrazolo[4,3-c]azepine-7,4′-tetrahydropyran]-1-yl)propyl 3-hydroxyisoxazole-5-carboxylate] | 0.1 to 0.5
CCc1nn(CCCOC(=O)c2nc(C)c(C)s2)c2c1C(=O)NCC1(CCOCC1)C2 [Example 94, 3-(3-ethyl-4-oxo-spiro[6,8-dihydro-5H-pyrazolo[4,3-c]azepine-7,4′-tetrahydropyran]-1-yl)propyl 4,5-dimethylthiazole-2-carboxylate] | 0.1 to 0.5
CCc1nn(CCCOC(=O)c2csnn2)c2c1C(=O)NCC1(CCOCC1)C2 [Example 57, 3-(3-ethyl-4-oxo-spiro[6,8-dihydro-5H-pyrazolo[4,3-c]azepine-7,4′-tetrahydropyran]-1-yl)propyl thiadiazole-4-carboxylate] | 0.1 to 0.5

Compound | IC50 [µM]
CCc1nn(CCCOC(=O)c2ncc(C)cn2)c2c1C(=O)NCC1(CCOCC1)C2 [Example 66, 3-(3-ethyl-4-oxo-spiro[6,8-dihydro-5H-pyrazolo[4,3-c]azepine-7,4′-tetrahydropyran]-1-yl)propyl 5-methylpyrimidine-2-carboxylate] | > 0.5
CCc1nn(CCCOC(=O)c2ncccc2C)c2c1C(=O)NCC1(CCOCC1)C2 [Example 62, 3-(3-ethyl-4-oxo-spiro[6,8-dihydro-5H-pyrazolo[4,3-c]azepine-7,4′-tetrahydropyran]-1-yl)propyl 3-methylpyridine-2-carboxylate] | > 0.5
CCc1nn(CCCOC(=O)c2ncc[nH]2)c2c1C(=O)NCC1(CCOCC1)C2 [Example 19, 3-(3-ethyl-4-oxo-spiro[6,8-dihydro-5H-pyrazolo[4,3-c]azepine-7,4′-tetrahydropyran]-1-yl)propyl 1H-imidazole-2-carboxylate] | > 0.5
CCc1nn(CCCOC(=O)c2cncn2C)c2c1C(=O)NCC1(CCOCC1)C2 [Example 41, 3-(3-ethyl-4-oxo-spiro[6,8-dihydro-5H-pyrazolo[4,3-c]azepine-7,4′-tetrahydropyran]-1-yl)propyl 3-methylimidazole-4-carboxylate] | 0.1 to 0.5
CCc1nn(CCCOC(=O)c2c[nH]nn2)c2c1C(=O)NCC1(CCOCC1)C2 [Example 25, 3-(3-ethyl-4-oxo-spiro[6,8-dihydro-5H-pyrazolo[4,3-c]azepine-7,4′-tetrahydropyran]-1-yl)propyl 1H-triazole-4-carboxylate] | 0.1 to 0.5
CCc1nn(CCCOC(=O)c2cccc(C)n2)c2c1C(=O)NCC1(CCOCC1)C2 [Example 64, 3-(3-ethyl-4-oxo-spiro[6,8-dihydro-5H-pyrazolo[4,3-c]azepine-7,4′-tetrahydropyran]-1-yl)propyl 6-methylpyridine-2-carboxylate] | > 0.5
CCc1nn(CCCOC(=O)c2ocnc2C)c2c1C(=O)NCC1(CCOCC1)C2 [Example 47, 3-(3-ethyl-4-oxo-spiro[6,8-dihydro-5H-pyrazolo[4,3-c]azepine-7,4′-tetrahydropyran]-1-yl)propyl 4-methyloxazole-5-carboxylate] | 0.1 to 0.5
CCc1nn(CCCOC(=O)c2ccnnc2)c2c1C(=O)NCC1(CCOCC1)C2 [Example 30, 3-(3-ethyl-4-oxo-spiro[6,8-dihydro-5H-pyrazolo[4,3-c]azepine-7,4′-tetrahydropyran]-1-yl)propyl pyridazine-4-carboxylate] | > 0.5
CCc1nn(CCCOC(=O)c2cc(C)n[nH]2)c2c1C(=O)NCC1(CCOCC1)C2 [Example 33, 3-(3-ethyl-4-oxo-spiro[6,8-dihydro-5H-pyrazolo[4,3-c]azepine-7,4′-tetrahydropyran]-1-yl)propyl 5-methyl-1H-pyrazole-3-carboxylate] | 0.1 to 0.5
CCc1nn(CCCOC(=O)c2nccn2C)c2c1C(=O)NCC1(CCOCC1)C2 [Example 40, 3-(3-ethyl-4-oxo-spiro[6,8-dihydro-5H-pyrazolo[4,3-c]azepine-7,4′-tetrahydropyran]-1-yl)propyl 1-methylimidazole-2-carboxylate] | 0.1 to 0.5
CCc1nn(CCCOC(=O)c2cnn(C)c2)c2c1C(=O)NCC1(CCOCC1)C2 [Example 38, 3-(3-ethyl-4-oxo-spiro[6,8-dihydro-5H-pyrazolo[4,3-c]azepine-7,4′-tetrahydropyran]-1-yl)propyl 1-methylpyrazole-4-carboxylate] | 0.1 to 0.5
CCc1nn(CCOC(=O)c2cocn2)c2c1C(=O)NCC1(CCOCC1)C2 [Example 2, 2-(3-ethyl-4-oxo-spiro[6,8-dihydro-5H-pyrazolo[4,3-c]azepine-7,4′-tetrahydropyran]-1-yl)ethyl oxazole-4-carboxylate] | > 0.5
CCc1nn(CCOC(=O)c2cscn2)c2c1C(=O)NCC1(CCOCC1)C2 [Example 7, 2-(3-ethyl-4-oxo-spiro[6,8-dihydro-5H-pyrazolo[4,3-c]azepine-7,4′-tetrahydropyran]-1-yl)ethyl thiazole-4-carboxylate] | > 0.5
CCc1nn(CCCOC(=O)C2CCOC2)c2c1C(=O)NCC1(CCOCC1)C2 (stereo not shown) [Example 28, 3-(3-ethyl-4-oxo-spiro[6,8-dihydro-5H-pyrazolo[4,3-c]azepine-7,4′-tetrahydropyran]-1-yl)propyl tetrahydrofuran-3-carboxylate] | > 0.5
CCc1nn(CCCOC(=O)c2cnsc2)c2c1C(=O)NCC1(CCOCC1)C2 [Example 55, 3-(3-ethyl-4-oxo-spiro[6,8-dihydro-5H-pyrazolo[4,3-c]azepine-7,4′-tetrahydropyran]-1-yl)propyl isothiazole-4-carboxylate] | 0.1 to 0.5
